Target: T1, human Lung Tryptase
T1 construct: 1.0 nM human Lung Tryptase
Experiment: Tryptase inhibition, chromogenic peptide substrate hydrolysis assay
Format: biochemical
Conditions: 1.0 nM tryptase, 500 μM N-p-Tosyl-GLY-PRO-LYS-pNA, 37° C.
Procedure: The rate of increase in absorbance at 405 nm due to hydrolysis of synthetic chromogenic peptide substrates ([S]: 500 μM N-p-Tosyl-GLY-PRO-LYS-pNA; Sigma T-6140) is measured in the presence and absence of inhibitors (I) with a microplate reader at 37° C. The enzyme reaction is started by the addition of enzyme ([E]: 1.0 nM human Lung Tryptase; Cortex Biochem CP3033). Data is collected over a period of 30 min. and the initial rate of substrate hydrolysis (Vo (mOD/min)) is calculated. Inhibition is calculated by comparing to wells […] (vehicle) and IC50s are determined using a four parameters fit logistics model.

Point of comparison: “N-[[4-[(aminoiminomethyl)amino]phenyl]methyl]-N-[1-[[(E)-2-(4-chlorophenyl)ethenyl]sulfonyl]-3-pyrrolidinyl]-4-[(diaminomethylene)amino]-benzamide [Compound 24]”, IC50 4000 nM. Against it:
- NC(N)=Nc1ccc(C(=O)NC2CCN(S(=O)(=O)/C=C/c3ccc(Cl)cc3)C2)cc1 (stereo not shown) [Compound 26, N-[1-[[(E)-2-(4-chlorophenyl)ethenyl]sulfonyl]-3-pyrrolidinyl]-4-[(diaminomethylene)amino]-benzamide] — 6.7-fold lower, 600 nM
- NC(N)=Nc1ccc(C(=O)N(Cc2ccc(O)cc2)C2CCN(S(=O)(=O)/C=C/c3ccc(Cl)cc3)C2)cc1 (stereo not shown) [Compound 2, N-[1-[[(E)-2-(4-chlorophenyl)ethenyl]sulfonyl]-3-pyrrolidinyl]-4-[(diaminomethylene)amino]-N-[(4-hydroxyphenyl)methyl]-benzamide] — 4.4-fold lower, 900 nM
- COC(=O)c1cc(CN(C(=O)c2ccc(N=C(N)N)cc2)C2CCN(S(=O)(=O)/C=C/c3ccc(Cl)cc3)C2)ccc1O (stereo not shown) [Compound 25, 5-[[[1-[[(E)-2-(4-chlorophenyl)ethenyl]sulfonyl]-3-pyrrolidinyl][4-[(diaminomethylene)amino]benzoyl]amino]methyl]-2-hydroxy-benzoic acid methyl ester] — 5.7-fold lower, 700 nM

Target: T2, human Factor Xa (Homo sapiens, UniProt P00742)
T2 construct: commercial human Factor Xa (American Diagnostica); purchased American Diagnostica
T2 sequence (P00742 235-488 limits assumed): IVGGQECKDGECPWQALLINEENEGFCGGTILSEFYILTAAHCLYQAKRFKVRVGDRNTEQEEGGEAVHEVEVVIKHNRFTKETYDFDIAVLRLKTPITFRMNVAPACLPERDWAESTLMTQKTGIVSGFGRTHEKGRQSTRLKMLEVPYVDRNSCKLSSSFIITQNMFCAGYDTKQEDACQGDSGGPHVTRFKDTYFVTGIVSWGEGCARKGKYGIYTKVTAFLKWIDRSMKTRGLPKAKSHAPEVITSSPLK
T2 sequence (P00742 41-179 partner limits assumed): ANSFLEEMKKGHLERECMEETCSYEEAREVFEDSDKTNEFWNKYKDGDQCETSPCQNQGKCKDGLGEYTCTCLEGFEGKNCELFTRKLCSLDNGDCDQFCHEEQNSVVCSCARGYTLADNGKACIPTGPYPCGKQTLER
Experiment: Factor Xa inhibition, enzyme-catalyzed hydrolysis assay (chromogenic substrate)
Format: biochemical
Conditions: 5.7 nM Factor Xa, 30-700 μM substrate, pH 8.4, 37° C.
Procedure: Enzyme-catalyzed hydrolysis rates were measured spectrophotometrically using commercial human Factor Xa (American Diagnostica), the chromogenic substrate (Meo—CO—D—CHG—Gly—Arg—pNa (American Diagnostica); in aqueous buffer (50 mM Trisma Base, 0.1% Tween 80, pH 8.4), and a microplate reader (Molecular Devices). Changes in absorbance at 405 nm were monitored using the software program Softmax (Molecular Devices), upon addition of enzyme, with and without inhibitor present at 37° C. for 30 minutes. The IC50 values were determined by fixing the enzyme and substrate concentrations (5.7 nM Factor Xa, 500 μM Factor Xa substrate) and varying the inhibitor concentration. Percent inhibition was calculated by comparing the initial reaction slopes of the without inhibitor samples to those with inhibitor. Inhibition constants (Ki) were determined by fixing the enzyme concentrations (5.7 nM Factor Xa) and inhibitor concentration and varying the substrate concentrations (30-700 μM Factor Xa substrate. Michaelis-Menton kinetics were applied to the initial reaction slopes using the program Kcat (Bio Metallics Inc.).

Point of comparison: COC(=O)CNC(=O)c1ccc(CN(C(=O)c2ccc(N=C(N)N)cc2)C2CCN(S(=O)(=O)/C=C/c3ccc(Cl)cc3)C2)cc1 (stereo not shown) [Compound 10, [[4-[[[1-[[(E)-2-(4-chlorophenyl)ethenyl]sulfonyl]-3-pyrrolidinyl][4-[(diaminomethylene)amino]benzoyl]amino]methyl]benzoyl]amino]-acetic acid methyl ester], Ki 200 nM. Against it:
- NC(N)=Nc1ccc(C(=O)N(Cc2cccc(C(=O)O)c2)C2CCN(S(=O)(=O)/C=C/c3ccc(Cl)cc3)C2)cc1 (stereo not shown) [Compound 6, 3-[[[1-[[(E)-2-(4-chlorophenyl)ethenyl]sulfonyl]-3-pyrrolidinyl][4-[(diaminomethylene)amino]benzoyl]amino]methyl]-benzoic acid] — 3-fold higher, 600 nM
- COC(=O)c1cccc(CN(C(=O)c2ccc(N=C(N)N)cc2)C2CCN(S(=O)(=O)/C=C/c3ccc(Cl)cc3)C2)c1 (stereo not shown) [Compound 4, 3-[[[1-[[(E)-2-(4-chlorophenyl)ethenyl]sulfonyl]-3-pyrrolidinyl][4-[(diaminomethylene)amino]benzoyl]amino]methyl]-benzoic acid methyl ester] — 38-fold higher, 7700 nM
- COC(=O)c1ccc(CN(C(=O)c2ccc(N=C(N)N)cc2)C2CCN(S(=O)(=O)/C=C/c3ccc(Cl)cc3)C2)cc1 (stereo not shown) [Compound 3, 4-[[[1-[[(E)-2-(4-chlorophenyl)ethenyl]sulfonyl]-3-pyrrolidinyl][4-[(diaminomethylene)amino]benzoyl]amino]methyl]-benzoic acid methyl ester] — 2-fold higher, 400 nM
- NC(N)=Nc1ccc(C(=O)N(Cc2ccccc2)C2CCN(S(=O)(=O)/C=C/c3ccc(Cl)cc3)C2)cc1 (stereo not shown) [Compound 1, N-[1-[[(E)-2-(4-chlorophenyl)ethenyl]sulfonyl]-3-pyrrolidinyl]-4-[(diaminomethylene)amino]-N-(phenylmethyl)-benzamide] — 8-fold higher, 1600 nM
- NC(N)=Nc1ccc(C(=O)N(Cc2ccc(C(=O)O)cc2)C2CCN(S(=O)(=O)/C=C/c3ccc(Cl)cc3)C2)cc1 (stereo not shown) [Compound 5, 4-[[[1-[[(E)-2-(4-chlorophenyl)ethenyl]sulfonyl]-3-pyrrolidinyl][4-[(diaminomethylene)amino]benzoyl]amino]methyl]-benzoic acid] — the same, 200 nM
- NC(N)=Nc1ccc(C(=O)N(Cc2ccc(O)cc2)C2CCN(S(=O)(=O)/C=C/c3ccc(Cl)cc3)C2)cc1 (stereo not shown) [Compound 2, N-[1-[[(E)-2-(4-chlorophenyl)ethenyl]sulfonyl]-3-pyrrolidinyl]-4-[(diaminomethylene)amino]-N-[(4-hydroxyphenyl)methyl]-benzamide] — 1.5-fold higher, 300 nM
- NC(=O)c1cccc(CN(C(=O)c2ccc(N=C(N)N)cc2)C2CCN(S(=O)(=O)/C=C/c3ccc(Cl)cc3)C2)c1 (stereo not shown) [Compound 15, 3-[[[1-[[(E)-2-(4-chlorophenyl)ethenyl]sulfonyl]-3-pyrrolidinyl][4-[(diaminomethylene)amino]benzoyl]amino]methyl]-benzamide] — 3-fold higher, 600 nM
- NC(N)=Nc1ccc(C(=O)N(Cc2cccc(OCC(=O)O)c2)C2CCN(S(=O)(=O)/C=C/c3ccc(Cl)cc3)C2)cc1 (stereo not shown) [Compound 11, [3-[[[1-[[(E)-2-(4-chlorophenyl)ethenyl]sulfonyl]-3-pyrrolidinyl][4-[(diaminomethylene)amino]benzoyl]amino]methyl]phenoxy]-acetic acid] — 3-fold higher, 600 nM
- NC(N)=Nc1ccc(C(=O)N(Cc2cccc(C(=O)NCC(=O)O)c2)C2CCN(S(=O)(=O)/C=C/c3ccc(Cl)cc3)C2)cc1 (stereo not shown) [Compound 14, [[3-[[[1-[[(E)-2-(4-chlorophenyl)ethenyl]sulfonyl]-3-pyrrolidinyl][4-[(diaminomethylene)amino]benzoyl]amino]methyl]benzoyl]amino]-acetic acid] — 1.5-fold higher, 300 nM
- NC(N)=Nc1ccc(C(=O)N2CCC(N(Cc3ccc(OCc4ccccc4)cc3)S(=O)(=O)/C=C/c3ccc(Cl)cc3)C2)cc1 (stereo not shown) [Compound 17, 2-(4-chlorophenyl)-N-[1-[4-[(diaminomethylene)amino]benzoyl]-3-pyrrolidinyl]-N-[[4-(phenylmethoxy)phenyl]methyl]-(E)-ethenesulfonamide] — 22-fold higher, 4400 nM
- NC(=O)c1ccc(CN(C(=O)c2ccc(N=C(N)N)cc2)C2CCN(S(=O)(=O)/C=C/c3ccc(Cl)cc3)C2)cc1 (stereo not shown) [Compound 9, N-[[4-(aminocarbonyl)phenyl]methyl]-N-[1-[[(E)-2-(4-chlorophenyl)ethenyl]sulfonyl]-3-pyrrolidinyl]-4-[(diaminomethylene)amino]-benzamide] — 1.5-fold higher, 300 nM
- NC(N)=Nc1ccc(C(=O)N(Cc2ccc(C(=O)NCC(=O)O)cc2)C2CCN(S(=O)(=O)/C=C/c3ccc(Cl)cc3)C2)cc1 (stereo not shown) [Compound 12, [[4-[[[1-[[(E)-2-(4-chlorophenyl)ethenyl]sulfonyl]-3-pyrrolidinyl][4-[(diaminomethylene)amino]benzoyl]amino]methyl]benzoyl]-amino]-acetic acid] — 2-fold higher, 400 nM
- 4-[(aminoiminomethyl)amino]-N-(2-benzofuranylmethyl)-N-[1-[[(E)-2-(4-chlorophenyl)ethenyl]sulfonyl]-3-pyrrolidinyl]-benzamide [Compound 27] — 2-fold lower, 100 nM
- COC(=O)COc1cccc(CN(C(=O)c2ccc(N=C(N)N)cc2)C2CCN(S(=O)(=O)/C=C/c3ccc(Cl)cc3)C2)c1 (stereo not shown) [Compound 8, [3-[[[1-[[(E)-2-(4-chlorophenyl)ethenyl]sulfonyl]-3-pyrrolidinyl][4-[(diaminomethylene)amino]benzoyl]amino]methyl]phenoxy]-acetic acid methyl ester] — 5.5-fold higher, 1100 nM
- COC(=O)CNC(=O)c1cccc(CN(C(=O)c2ccc(N=C(N)N)cc2)C2CCN(S(=O)(=O)/C=C/c3ccc(Cl)cc3)C2)c1 (stereo not shown) [Compound 13, [[3-[[[1-[[(E)-2-(4-chlorophenyl)ethenyl]sulfonyl]-3-pyrrolidinyl][4-[(diaminomethylene)amino]benzoyl]amino]methyl]benzoyl]amino]-acetic acid methyl ester] — the same, 200 nM
- COc1ccc2ccc(S(=O)(=O)N(Cc3ccccc3)C3CCN(C(=O)c4ccc(N=C(N)N)cc4)C3)cc2c1 (stereo not shown) [Compound 23, N-[1-[4-[(diaminomethylene)amino]benzoyl]-3-pyrrolidinyl]-7-methoxy-N-(phenylmethyl)-2-naphthalenesulfonamide] — 100-fold higher, 21000 nM
- COC(=O)c1ccc(CN(C2CCN(C(=O)c3ccc(N=C(N)N)cc3)C2)S(=O)(=O)/C=C/c2ccc(Cl)cc2)cc1 (stereo not shown) [Compound 22, 4-[[[[(E)-2-(4-chlorophenyl)ethenyl]sulfonyl][1-[4-[(diaminomethylene)amino]benzoyl]-3-pyrrolidinyl]amino]methyl]-benzoic acid methyl ester] — 36-fold higher, 7100 nM

Reference: patent US6630505B2, “Aminopyrrolidine sulfonamides as serine protease inhibitors” (Ortho-McNeil Pharmaceutical, Inc., priority 2001, dated 2003)
